The test system of data set [1] is rno expression in HL-60 cells. The data set can be described thus: RT-PCR analysis of rno expression in HL-60 cells treated with differentiating agents. To be noted: for rno expression (RT-PCR), sGC/cGMP pathway agents alone: ODQ 10 μM, 8-Br-cGMP 3 mM; for time course of rno induction (RT-PCR): 125 μM DETA-NO or 1.2% DMSO added once, 24, 48, 72 hr; for rno expression (RT-PCR): DETA-NO 125 μM, DMSO 1.2% (v/v), VD3 100 nM. In kind it is cell-based, human. The procedure:
FIG. 4 is a […] showing the effect of differentiating agents on rno expression in HL-60 cells. For the upper panel, HL-60 cells were treated with DETA-NO, DMSO, or VD3 for 24 hours before analysis of rno expression by RT-PCR. Lane 1, no treatment control; Lane 2, DETA-NO; Lane 3, DMSO; Lane 4, VD3; Lane 5, water blank (no template); Lane 6, reverse transcriptase omitted from the reaction mixture; Lane 7, RT-PCR performed using RNA isolated from normal PMN (positive control). The positions of the size marker (MW) are indicated on the left. The positions of rno-1 and rno-3 are shown on the right. Referring to the lower panel, RT-PCR analysis of actin expression was used to control for the quality and integrity of the cDNA that was prepared from the various samples. Lane 1, no treatment control cells; Lane 2, cells treated with DETA-NO, Lane 3, cells treated with DMSO; Lane 4, cells treated with VD3; Lane 5, water blank (no template), Lane 6, RT-PCR performed using RNA isolated from normal PMN.
FIG. 5 illustrates the time course of rno induction in HL-60 cells. For the results of the upper panel, HL-60 cells were treated with 125 μM DETA-NO or 1.2% DMSO, and expression of rno was analyzed by RT-PCR at three different time points. MW, 100 bp DNA ladder; Lane 1, no-treatment control cells; Lane 2, cells treated with DETA-NO for 24 hr; Lane 3, cells treated with DETA-NO for 48 hr; Lane 4; cells treated with DETA-NO for 72 hr; Lane 5, cells treated with DMSO for 24 hr; Lane 6, cells treated with DMSO for 48 hr; Lane 7, cells treated with DMSO 72 hr; Lane 8, water blank (no template). The position of rno-1 is indicated on the left. For the results of the lower panel, RT-PCR analysis of actin expression was used to control for the quality and integrity of the cDNA that was prepared from the various samples. MW, 100 bp DNA ladder; Lane 1, no-treatment control cells; Lane 2, cells treated with DETA-NO for 24 hr; Lane 3, cells treated with DETA-NO for 48 hr; Lane 4; cells treated with DETA-NO for 72 hr; Lane 5, cells treated with DMO for 24 hr; Lane 6, cells treated with DMSO for 48 hr; Lane 7, cells treated with DMSO 72 hr. The position of actin is indicated on the left. DETA-NO upregulates rno within 24 hours and expression returns to baseline by 48 hours. DMSO also upregulates rno within 24 hours but expression persists through the entire 72 hr of exposure.
FIG. 6 illustrates the effect of cGMP on rno expression. In the upper pannel, HL-60 cells were treated with DETA-NO, 8Br-cGMP, ODQ, or ODQ and DETA-NO for 24 hours. Subsequently rno expression was analyzed by using RT-PCR. Lane 1, molecular mass standards (100 bp ladder); Lane 2, no-treatment control cells; Lane 3, DETA-NO; Lane 4, 8-Br-cGMP; Lane 5, ODQ; Lane 6, ODQ and DETA-NO; Lane 7, water blank (no cDNA template); Lane 8, reverse transcriptase omitted from one of the reaction mixtures. The position of rno-1 is indicated on the left. In the lower panel, RT-PCR analysis of actin expression was used to control for the quality and integrity of the cDNA that was prepared from the various samples. Lane 1,100 bp DNA ladder; Lane 2, no-treatment control; Lane 3, cells treated with DETA-NO; Lane 4, cells treated with 8Br-cGMP; Lane 5, cells treated with ODQ; Lane 6, cells treated with ODQ and DETA-NO. The position of actin is indicated on the left. Upregulation of rno by DETA-NO is cGMP-independent.
Referring to FIG. 4, RT-PCR was used to compare the effects of three differentiating agents on expression of rno. NO induces HL-60 cells to differentiate along the monocytic lineage. Magrinat, G et al. (1992) Blood, 80:1980-1986. DMSO is a granulocytic differentiation agent, while VD3 induces monocytic differentiation. Trayner, ID et al. (1998) Leuk Res., 22:537-547.
Referring to FIG. 4, both NO and DMSO induce expression of rno. To determine if the time-course of induction is similar, HL-60 cells were incubated with either DETA-NO or DMSO for 72 hr. […]

Data set [2] concerns rno expression in HL-60 cells. The experiment in a line: Northern analysis of rno expression in DETA-NO treated HL-60 cells. To be noted: DETA-NO 125 μM, 24 hr, DP-3A probe. In kind it is cell-based, human. The procedure:
FIG. 1 is a northern blot showing the induction of rno expression by NO. HL-60 cells were treated for 24 hr with DETA-NO (125 μM). Total cellular RNA was isolated and northern analysis was performed by using radiolabelled rno DP-3A as a probe as shown in the upper panel. […] The positions of the bands representing 28S and 18S ribosomal RNA are indicated on the left. Lane 1, RNA from control, untreated cells; Lane 2, RNA from DETA-NO treated cells.
The following two sets of cells were used for analysis of the effects NO on gene expression: control HL-60 cells incubated in media for 24 hours and HL-60 cells treated with 125 μM DETA-NO (a NO generating compound) for the same time period. Poly (A^+) RNA was prepared from the two sets of cells, and this material was used as template for the synthesis of double stranded cDNA. Following digestion with BglII, a set of primer/adapters was ligated to aliquots of each sample, and this cDNA was amplified by PCR to generate representations from the control and treated populations. By using the technique of RDA modified for cDNA, gene expression between the control and DETA-NO treated cells was compared. Lisitsyn, N et al. (1993) Science.259:946-951; Hubank, M & Schatz, D G (1994) Nucl Acids Res. 22:5640-5648; Kanai, N et al. (1999) Am J Hematol., 61:221-231. In the present study, two sets of subtraction/hybridizations were performed in parallel. […]

Data set [3] is described as follows: Half-life of NO release of DETA-NO. In kind it is physicochemical. To be noted: by the time the 48 hr sample was harvested, from half-life of 20 hr. As for the experimental part:
HL-60 cells were from ATCC (Rockville, Md.) and were cultured at 37° C. in a 5% CO2 humidified atmosphere at a density of 150,000 cells/ml. The culture medium consisted of RPMI-1640 supplemented with 10% fetal bovine serum and 1% Penicillin (10,000 U/mL)/Streptomycin (10 mg/mL). (Z)-1-[2-(2-Aminoethyl)-N-(2-ammonioethyl)amino]diazen-1-um-1,2-diolate] (DETA-NO) was used as a source of NO. DETA-NO belongs to the diazenium diolate class of NO donors and releases 2 molecules of NO per carrier moiety with a half-life of NO release of 20 hours. Keefer, L K et al. (1996) Methods in Enzymology.268:281-293. The effects of the following other differentiating agents on expression of rno were also investigated: dimethyl sulfoxide (DMSO); all-trans retinoic acid (ATRA); and vitamin D3 (VD3). DETA-NO, DMSO, ATRA, or VD3 were added once to HL-60 cells at the time of culture initiation at concentrations of 125 μM, 1.2% (v/v), 1 μM, and 100 nM, respectively. For studies of the role of the soluble guanylate cyclase (sGC)/cGMP signal transduction pathway in NO upregulation of rno, the sGC inhibitor 1H-[1,2,4]oxadiazolo[4,3-a]quinoxalin-1 -one (ODQ) and the cell permeable cGMP analogue 8-Br-cGMP at concentrations of 10 μM were used and 3 mM, respectively. Brunner, F et al. (1996) J Pharmacol Exp Ther. 277:48-53; Boss, GR.(1989) Proc Natl Acad Sci USA. 86:7174-7178. […]

In the case of `Nc1nc2c(nc(Br)n2[C@@H]2O[C@@H]3COP(=O)(O)O[C@H]3[C@H]2O)c(=O)[nH]1` [8-Br-9 cGMP], in data set [1] (24 hours), the “rno expression (RT-PCR), sGC/cGMP pathway agents alone” value is recorded as “did not induce rno expression”. As for `CC1=C(/C=C/C(C)=C/C=C/C(C)=C/C(=O)O)C(C)(C)CCC1` [ATRA, all-trans retinoic acid], the “rno expression (RT-PCR), data not shown” value in data set [1] (ATRA 1 μM, even after 72 hr of exposure) is “no effect on rno expression”.

On to `NCCN(CCN)/[N+]([O-])=N/O` [DETA-NO], for which, in data set [2], the “rno expression (northern blot)” value was “upregulates rno expression”. Moreover, the “time course of rno induction (RT-PCR)” value in data set [1] is “evident at 24 hr and returned to baseline by 48 hr”. Further, in data set [1] (24 hours), the “rno expression (RT-PCR)” value was “upregulated”. Besides, the “decrease of functional activity of the reagent” value in data set [3] is recorded as “more than 75%”. For `C[S+](C)[O-]` [DMSO, dimethyl sulfoxide], the “time course of rno induction (RT-PCR)” value in data set [1] was “induced expression of rno within 24 hr, however, expression persisted through the entire 72 hr observation period”. Also, in data set [1] (24 hours), the “rno expression (RT-PCR)” value is listed as “upregulated”. `O=c1onc2cnc3ccccc3n12` [ODQ, 1H-[1,2,4]oxadiazolo[4,3-a]quinoxalin-1-one]: the “rno expression (RT-PCR), sGC/cGMP pathway agents alone” value in data set [1] (24 hours) is reported as “did not upregulate rno expression”. Also, the “effect of sGC inhibitor on induction of rno by DETA-NO (RT-PCR)” value in data set [1] (ODQ and DETA-NO in combination, 24 hours) is given as “did not prevent the induction of rno by DETA-NO”. Take `C=C1CC[C@H](O)C/C1=C/C=C1\CCC[C@]2(C)[C@@H]([C@H](C)CCCC(C)C)CC[C@@H]12` [VD3, vitamin D3]: the “rno expression (RT-PCR)” value in data set [1] (24 hours) was “not by VD3”.

These data come from patent US20010029033A1, “Novel gene rno upregulated in leukemia cells by nitric oxide and DMSO” (priority 2000, published 2001).
